“Also recorded” adds a separate entry of the source.
Tested on: F. hepatica newly excysted juveniles (NEJs), Italian strain
Assay: Ex vivo screen against newly excysted juveniles (NEJs), phenotype and motility scoring
Type: cell-based, Fasciola hepatica
Conditions: 10 µM; for Average motility of 25 NEJs with 95% CI, 24 hours / Average motility of 25 NEJs with 95% CI, 48 hours / Average motility of 25 NEJs with 95% CI, 72 hours: motility score 1 good/normal to 5 no movement; for Average phenotype of 25 NEJs with 95% CI, 24 hours / Average phenotype of 25 NEJs with 95% CI, 48 hours / Average phenotype of 25 NEJs with 95% CI, 72 hours: ultrastructure score 1 normal to 6 dead or dissolved; for Activity against NEJs (first screen), in words: 72 h co-culture
Procedure: […] The NEJs were excysted from metacercariae and assayed at 10 μM (in 0.1% DMSO) final concentration alongside negative (0.1% DMSO) and positive (10 μM TCBZ, in 0.1% DMSO) controls as previously described. The MC and IVL compound series were screened separately.
The motility (1—good/normal; 2—moderate; 3—low; 4—very little; 5—no movement) and phenotypic (ultrastructural changes) scores were noted according to a previously described scoring matrix (Figure S1 and Table S2).

Row | SMILES | Average motility of 25 NEJs with 95% CI, 24 hours | Average phenotype of 25 NEJs with 95% CI, 24 hours | Average motility of 25 NEJs with 95% CI, 48 hours | Average phenotype of 25 NEJs with 95% CI, 48 hours | Average motility of 25 NEJs with 95% CI, 72 hours | Average phenotype of 25 NEJs with 95% CI, 72 hours | Activity against NEJs (first screen), in words
1 | CC1(C)CC[C@]2(NC(=O)N[C@H]3C(O)O[C@H](CO)[C@@H](O)[C@@H]3O)CC[C@]3(C)C(=CCC4[C@@]5(C)CCC6OC(C)(C)OC[C@@]6(C)C5CC[C@]43C)C2C1 (stereo partly drawn) [MC028, 1-((4aR,6aR,6bS,8aS,14bR)-2,2,4a,6a,6b,11,11,14b-Octamethyl-4a,5,6,6a,6b,7,8,9,10,11, 12,12a,14,14a, 14b,15,16,16a-octadecahydro-4H-piceno[3,4-d][1,3]dioxin-8a(4bH)-yl)-3-((3R,4R,5S,6R)-2,4,5-tri-hydroxy-6-(hydroxymethyl)tetrahydro-2H-pyran-3-yl)urea] | 2.32 (1.8;2.7) | 2.24 (1.6;2.8) | 3.52 (2.9;4) | 2.76 (2;3.4) | 2.60 (1.9;3.2) | 2.72 (2;3.4) | none reached the level required
2 | CCCCCCCCCCCCCCCC(=O)OC[C@]12CCC(C)(C)CC1C1=CCC3[C@@]4(C)CC[C@H](O)[C@@](C)(CO)C4CC[C@@]3(C)[C@]1(C)CC2 (stereo partly drawn) [MC038, ((4aS,6aS,6bR,9R,10S,12aR)-10-Hydroxy-9-(hydroxymethyl)-2,2,6a,6b,9,12a-hexamethyl-1,3,4,5,6,6a, 6b,7,8,8a,9,10,11,12,12a,12b,13,14b-octadecahydropicen-4a(2H)-yl)methyl palmitate] | 2.96 (2.3;3.5) | 2.32 (1.7;2.9) | 2.80 (2.2;3.3) | 2.92 (2.1;3.6) | 3.32 (2.7;3.8) | 3.48 (2.7;4.2) | 
3 | CC1(C)CC[C@]2(NC(=O)N[C@H]3C(O)O[C@H](CO)[C@@H](O)[C@@H]3O)CC[C@]3(C)C(=CCC4[C@@]5(C)CC[C@H](O)[C@@](C)(CO)C5CC[C@]43C)C2C1 (stereo partly drawn) [MC030, 1-((4aS,6aS,6bR,9R,10S,12aR)-10-Hydroxy-9-(hydroxymethyl)-2,2,6a,6b,9,12a-hexa-methyl-1,3,4,5,6,6a,6b,7,8,8a,9,10,11,12,12a,12b,13,14b-octadecahydropicen-4a(2H)-yl)-3-((3R,4R,5S,6R)-2,4,5-tri-hydroxy-6-(hydroxymethyl)tetrahydro-2H-pyran-3-yl)urea] | 3.20 (2.6;3.7) | 3.00 (2.2;3.7) | 3.92 (3.5;4.2) | 3.60 (2.9;4.2) | 3.96 (3.4;4.4) | 4.00 (3.2;4.7) | none reached the level required; also recorded: low activity
4 | CCCCCCCCCCCCCCCC(=O)OC[C@]12CCC(C)(C)CC1C1=CCC3[C@@]4(C)CCC5OC(C)(C)OC[C@@]5(C)C4CC[C@@]3(C)[C@]1(C)CC2 (stereo partly drawn) [MC032, ((4aR,6aR,6bS,8aS,14bR)-2,2,4a,6a,6b,11,11,14b-Octamethyl-4a,5,6,6a,6b,7,8,9,10,11,12,12a,14,14a, 14b,15,16,16a-octadecahydro-4H-piceno[3,4-d][1,3]dioxin-8a(4bH)-yl)methyl palmitate] | 3.20 (2.6;3.7) | 2.52 (1.7;3.3) | 3.12 (2.5;3.6) | 2.64 (1.8;3.4) | 3.12 (2.5;3.7) | 2.80 (2;3.5) | 
5 | COC(=O)[C@@H](NC(=O)N[C@]12CCC(C)(C)CC1C1=CCC3[C@@]4(C)CCC5OC(C)(C)OC[C@@]5(C)C4CC[C@@]3(C)[C@]1(C)CC2)C(C)C (stereo partly drawn) [MC027, Methyl (((4aR,6aR,6bS,8aS,14bR)-2,2,4a,6a,6b,11,11,14b-octamethyl-4a,5,6,6a,6b,7,8,9,10, 11,12,12a, 14,14a,14b,15,16,16a-octadecahydro-4H-piceno[3,4-d][1,3]dioxin-8a(4bH)-yl)-carbamoyl)-L-valinate] | 3.48 (2.9;3.9) | 3.32 (2.5;4.1) | 4.72 (4.4;4.9) | 4.64 (3.9;5.3) | 4.76 (4.4;5) | 5.48 (4.9;5.9) | 
6 | COC(=O)[C@H](Cc1c[nH]cn1)NC(=O)N[C@]12CCC(C)(C)CC1C1=CCC3[C@@]4(C)CC[C@@H]5OC(C)(C)OC[C@@]5(C)C4CC[C@@]3(C)[C@]1(C)CC2 (stereo partly drawn) [MC048, Methyl (((4aR,6aR,6bS,8aS,14bR,16aS)-2,2,4a,6a,6b,11,11,14b-octamethyl-4a,5,6,6a,6b,7,8,9,10,11,12, 12a,14,14a,14b,15,16,16a-octadecahydro-4H-piceno[3,4-d][1,3]dioxin-8a(4bH)-yl)carbamoyl)-L-histidinate] | 1.40 (1.2;1.5) | 1.44 (1.2;1.6) |  |  | 1.96 (1.8;2) | 1.88 (1.7;2) | 
7 | CN(C[C@H](O)[C@@H](O)[C@H](O)[C@H](O)CO)C(=O)N[C@]12CCC(C)(C)CC1C1=CCC3[C@@]4(C)CC[C@@H]5OC(C)(C)OC[C@@]5(C)C4CC[C@@]3(C)[C@]1(C)CC2 (stereo partly drawn) [MC059, 1-Methyl-3-((4aR,6aR,6bS,8aS,14bR,16aS)-2,2,4a,6a,6b,11,11,14b-octamethyl-4a,5,6,6a, 6b,7,8,9,10,11, 12,12a,14,14a,14b,15,16,16a-octadecahydro-4H-piceno[3,4-d][1,3]dioxin-8a(4bH)-yl)-1-((2S,3R,4R,5R)-2,3,4,5,6-pentahydroxyhexyl)urea] | 2.84 (2.3;3.3) | 2.68 (1.9;3.3) | 3.20 (2.7;3.6) | 3.04 (2.3;3.7) | 3.20 (2.6;3.7) | 3.88 (3.2;4.4) | none reached the level required
8 | CCCNC(=O)N[C@]12CCC(C)(C)CC1C1=CCC3[C@@]4(C)CCC5OC(C)(C)OC[C@@]5(C)C4CC[C@@]3(C)[C@]1(C)CC2 (stereo partly drawn) [MC022, 1-((4aR,6aR,6bS,8aS,14bR)-2,2,4a,6a,6b,11,11,14b-Octamethyl-4a,5,6,6a,6b,7,8,9,10,11, 12,12a,14,14a, 14b,15,16,16a-octadecahydro-4H-piceno[3,4-d][1,3]dioxin-8a(4bH)-yl)-3-propylurea] | 2.68 (1.9;3.4) | 4.60 (4.2;4.9) | 4.12 (3.7;4.4) | 5.08 (4.7;5.4) | 4.96 (4.8;5) | 5.88 (5.6;6.1) | inactive against NEJs
9 | CCCCOC(=O)N[C@]12CCC(C)(C)CC1C1=CCC3[C@@]4(C)CCC5OC(C)(C)OC[C@@]5(C)C4CC[C@@]3(C)[C@]1(C)CC2 (stereo partly drawn) [MC019, Butyl ((4aR,6aR,6bS,8aS,14bR)-2,2,4a,6a,6b,11,11,14b-octamethyl-4a,5,6,6a,6b,7,8,9,10, 11,12,12a,14, 14a,14b,15,16,16a-octadecahydro-4H-piceno[3,4-d][1,3]dioxin-8a(4bH)-yl)carbamate] | 2.24 (1.7;2.7) | 2.40 (1.8;2.9) | 4.00 (3.7;4.2) | 3.20 (2.6;3.7) | 4.36 (3.9;4.7) | 3.40 (2.7;4) | inactive against NEJs
10 | CC1(C)CC[C@]2(NC(=O)NCc3ccccc3)CC[C@]3(C)C(=CCC4[C@@]5(C)CCC6OC(C)(C)OC[C@@]6(C)C5CC[C@]43C)C2C1 (stereo partly drawn) [MC017, 1-Benzyl-3-((4aR,6aR,6bS,8aS,14bR)-2,2,4a,6a,6b,11,11,14b-octamethyl-4a,5,6,6a,6b,7,8,9,10,11,12,12a,14,14a,14b,15,16,16a-octadecahydro-4H-piceno[3,4-d][1,3]dioxin-8a(4bH)-yl)urea] | 4.12 (3.7;4.5) | 3.28 (2.5;4) | 4.0 (3.5; 4.4) | 4.04 (3.3;4.6) | 3.92 (3.3; 4.4) | 4.12 (3.4;4.7) | 
11 | CC1(C)CC[C@]2(NC(=O)N3CCC[C@H]3C(=O)O)CC[C@]3(C)C(=CCC4[C@@]5(C)CCC6OC(C)(C)OC[C@@]6(C)C5CC[C@]43C)C2C1 (stereo partly drawn) [MC033, (((4aR,6aR,6bS,8aS,14bR)-2,2,4a,6a,6b,11,11,14b-Octamethyl-4a,5,6,6a,6b,7,8,9,10,11,12,12a,14,14a, 14b,15,16,16a-octadecahydro-4H-piceno[3,4-d][1,3]dioxin-8a(4bH)-yl)carbam-oyl)-L-proline] | 3.80 (3.4;4.1) | 3.28 (2.7;3.8) | 3.88 (3.5;4.2) | 3.44 (2.8;4) | 3.76 (3.2;4.2) | 4.04 (3.3;4.6) | 

From publication PMC10385850, “Modified Hederagenin Derivatives Demonstrate Ex Vivo Anthelmintic Activity against Fasciola hepatica” (Pharmaceutics, 2023)
